# From patent publication US5688913A, “CS-1 peptidomimetics, compositions and methods of using the same” (Cytel Corporation, priority 1995, dated 1997)
# Read-outs that look alike come from different tables or passages of the source. Square brackets hold non-standard residues; d marks the D form. Peptide text beside a SMILES is read from it. * marks the point of attachment. NHOctadecyl = CCCCCCCCCCCCCCCCCCN*; Cha = N[C@@H](CC1CCCCC1)C(=O)O; X15 = O=S(=O)(c1cccc2cccnc12)*; Morpholide = C1CN(*)CCO1; NHDecyl = CCCCCCCCCCN*; PhAc = O=C(Cc1ccccc1)*; Bz = O=C(c1ccccc1)*; Ahx = NCCCCCC(=O)O
# Assays:
# VLA-4 [1] = target: T1, VLA-4 (Homo sapiens, UniProt P05556+P13612); experiment: cell-based; format: cell-based; design: host or cells: Jurkat (human T lymphoblastic line)
# T1 sequence (P13612 34-1032): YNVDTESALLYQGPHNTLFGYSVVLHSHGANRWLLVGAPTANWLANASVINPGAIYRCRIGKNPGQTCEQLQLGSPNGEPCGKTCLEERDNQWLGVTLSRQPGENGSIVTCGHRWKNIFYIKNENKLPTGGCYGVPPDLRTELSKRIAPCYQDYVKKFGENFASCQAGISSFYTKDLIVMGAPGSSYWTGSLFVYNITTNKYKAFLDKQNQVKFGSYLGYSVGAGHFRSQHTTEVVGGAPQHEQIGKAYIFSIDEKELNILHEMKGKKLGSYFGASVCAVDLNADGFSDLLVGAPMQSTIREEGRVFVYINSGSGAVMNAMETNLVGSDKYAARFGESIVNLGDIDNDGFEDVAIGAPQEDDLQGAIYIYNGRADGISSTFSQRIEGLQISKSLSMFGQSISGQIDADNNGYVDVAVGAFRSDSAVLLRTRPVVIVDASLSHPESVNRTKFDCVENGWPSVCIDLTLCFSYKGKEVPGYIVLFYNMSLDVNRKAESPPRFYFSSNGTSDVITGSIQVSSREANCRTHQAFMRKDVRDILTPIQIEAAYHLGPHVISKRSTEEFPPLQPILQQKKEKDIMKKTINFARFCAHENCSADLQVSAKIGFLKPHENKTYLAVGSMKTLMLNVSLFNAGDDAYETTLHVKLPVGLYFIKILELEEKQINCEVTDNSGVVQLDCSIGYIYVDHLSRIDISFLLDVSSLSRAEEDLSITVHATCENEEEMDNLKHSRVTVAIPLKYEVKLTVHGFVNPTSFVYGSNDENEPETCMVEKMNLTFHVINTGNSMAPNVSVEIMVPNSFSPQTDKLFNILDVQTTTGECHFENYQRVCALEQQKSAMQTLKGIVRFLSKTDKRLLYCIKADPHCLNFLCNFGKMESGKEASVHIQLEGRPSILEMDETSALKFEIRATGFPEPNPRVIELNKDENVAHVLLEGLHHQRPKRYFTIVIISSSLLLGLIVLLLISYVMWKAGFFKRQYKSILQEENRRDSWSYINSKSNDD
# T1 sequence (P05556 21-798): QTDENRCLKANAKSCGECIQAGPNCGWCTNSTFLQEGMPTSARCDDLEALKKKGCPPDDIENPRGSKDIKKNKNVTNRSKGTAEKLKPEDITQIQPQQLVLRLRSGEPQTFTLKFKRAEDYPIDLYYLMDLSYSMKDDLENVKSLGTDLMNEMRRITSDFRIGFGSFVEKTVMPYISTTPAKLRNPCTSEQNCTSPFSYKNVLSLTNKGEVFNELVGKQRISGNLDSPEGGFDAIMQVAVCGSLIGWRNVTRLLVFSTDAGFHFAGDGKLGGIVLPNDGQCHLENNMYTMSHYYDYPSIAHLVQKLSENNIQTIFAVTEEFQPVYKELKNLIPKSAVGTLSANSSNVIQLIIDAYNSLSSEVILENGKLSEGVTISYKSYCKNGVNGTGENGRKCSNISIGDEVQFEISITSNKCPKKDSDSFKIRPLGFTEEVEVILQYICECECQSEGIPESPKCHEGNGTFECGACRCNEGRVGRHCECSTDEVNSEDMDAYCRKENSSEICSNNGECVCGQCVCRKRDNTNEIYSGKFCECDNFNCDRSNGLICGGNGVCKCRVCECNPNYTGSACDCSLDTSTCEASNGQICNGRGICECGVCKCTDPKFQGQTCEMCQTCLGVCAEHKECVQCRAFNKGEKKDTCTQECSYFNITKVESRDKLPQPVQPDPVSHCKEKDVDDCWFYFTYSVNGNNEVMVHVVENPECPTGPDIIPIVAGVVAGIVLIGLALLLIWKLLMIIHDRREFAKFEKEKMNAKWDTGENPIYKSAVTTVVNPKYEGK
# Procedure, shortened: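 51Cr-labelled Jurkat cells (human T lymphoblastic) were preincubated 30 min at about 22 °C with peptide, then allowed to bind 30 min at 37 °C to wells coated with CS-1 peptide or CS-1-OVA. After washing, bound cells were lysed with SDS and counted. IC50 is the peptide concentration halving binding, normalized to plate controls.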
# [2] = system: New Zealand white rabbits; experiment: Treatment of asthmatic rabbits (house dust mite antigen challenge, crossover); format: in vivo, rabbit
# Description: Six New Zealand white rabbits were immunized with house dust mite antigen from birth through four months of age. Upon immunization, three rabbits received a single nebulizer administration of the inhibitor peptide N-phenylacetyl-Leu-Asp-Phe-morpholinamide in aqueous 50 percent ethanol as diluent in an amount of 100 mg/kg, and the other three received diluent alone. All of the rabbits were challenged with house dust mite antigen about 15-30 minutes after administration of the peptide, with those animals not receiving peptide serving as controls.
# Once immunized and challenged, the inflammatory state subsides to a basal level within about three weeks. The three animals used as controls were thereafter used as subjects for receipt of an inhibitor peptide, and the three rabbits that initially received the peptide can serve as controls.
# Such a crossover study was done here. Thus, the three initial control rabbits were treated with the above inhibitor peptide in the above diluent at a time more than three weeks after the above study, and the three previous recipients of the peptide were administered the diluent alone. All six were than challenged again.
# Initial pulmonary function, measured by dynamic compliance (Cdyn) and lung resistance (RL), and bronchoalveolar lavage (BAL) to obtain an effector cell count, here eosinophils, were conducted prior to administration of the peptide or diluent for both portions of this crossover study. Similar assays were then taken one-half hourly after challenge for six hours (early phase allergic reaction) and at 24 hours after challenge (late stage allergic reaction) for both portions of this study.
# These studies were conducted by Dr. W. J. Metzger of East Carolina University, Greenville, N.C. as described by W. J. Metzger in CRC Handbook of Late Phase Reactions, W. Dorsch, ed., Chapter 35, CRC Press, Boca Raton, Fla. (1990) pages 347-362.
# The results of this study for the pulmonary function parameters are shown in FIG. 4A and FIG. 4B, in which data for the challenged, inhibitor peptide-treated animals are shown as open circles and data for the challenged, untreated, control animals are shown in blackened circles.
# [3] = Retention of potency in PBS containing 10 percent serum; conditions: PBS at 7.2-7.4 containing 10 percent mouse or human serum
# Water solubility = format: physicochemical
# New Zealand white rabbit = experiment: Rabbit cardiac allograft model; format: in vivo; conditions: 1 mg/kg/day injections, day 7
# Description: New Zealand white rabbit SPF hearts were allografted into the necks of similar rabbits to assay a graft-vs-host immunorejection model and the affect of a contemplated peptide on that immunoinflammatory response. These studies were carried out by Dr. M. Rabinovitch of the Hospital for Sick Children, Toronto, Ontario, Canada.
# Here, two rabbits were injected on day zero with 1 mg/kg/day of the inhibitor peptide N-phenylacetyl-Leu-Asp-Phe-D-Pro-NH2 in aqueous diluent. The two rabbits then each received a grafted heart, with the graft being made in the carotid artery to the aorta of the grafted heart, and the jugular vein to the pulmonary artery of the grafted heart. The rabbits thereafter received daily injections of the same dose of that peptide, and were sacrificed on day 7. Another animal that received normal saline injections in place of the peptide injections, also received a similarly allografted heart, and was similarly sacrificed at day 7.
# The animals' blood vessels were thereafter examined histologically for evidence of arteriopathy, and particularly thickening of the intimal elastic lamina (IEL) layer of the coronary arteries. Thickening of the IEL is caused at least in part by emigration of effector cells bearing the CD2 marker such as T cells and NK cells. Clausell et al., Am. J. Path., 142(6):1772-1786 (1993). […]
# BALB/c mice = experiment: Delayed type hypersensitivity in mice (adoptive transfer, oxazolone); format: in vivo, mouse; conditions: 6 mg/kg/day subcutaneously by implanted pump for 24 hours; FIG. 5
# Description: An adoptive transfer delayed-type hypersensitivity murine model has been developed using splenic T cells primed to oxazolone. This model is described in Elices et al., Clin. Exp. Rheum., 11(Suppl. 8):577-580 (1993), whose procedures were followed here.
# Thus, BALB/c mice were shaved on the belly and painted (50 μl on the belly and 5 μl on each paw) with three percent oxazolone in acetone/olive oil (4:1) at days zero and 1. At day 5, the mice were sacrificed, their spleens removed, and splenic T cells were obtained via nylon wool columns.
# Normal saline or saline containing 25×10^6 /animal of the oxazolone-immune T cells were separately injected into naive mice. The mice were then challenged by painting 10 μl of 2 percent oxazolone onto one ear each. All procedures were carried out under sterile conditions and in endotoxing-free buffers.
# Prior to challenge or saline injection, the mice were implanted with pumps that subcutaneously administered normal saline, normal saline containing the peptide N-phenylacetyl-Leu-Asp-Phe-D-Pro-NH2 or normal saline containing a peptide with a scrambled sequence continually at 6 mg/kg/day for a 24-hour time period. The swelling diameter at the site of challenge or saline injection was measured with a microcaliper 24 hours thereafter.
# SJL/J mice = experiment: Experimental autoimmune encephalomyelitis in mice; format: in vivo; conditions: 1 mg/mouse intraperitoneally at days 8 and 9; versus scrambled control peptide; FIG. 6
# Description: Experimental autoimmune encephalomyelitis (EAE) is a demyelinating disease of the central nervous system that can be induced in susceptible strains of mice and rats by immunization with myelin basic protein, proteolipid protein (PLP), or their immunodominant T cell determinants, or by injection of CD4-positive T cell clones specific for those determinants. EAE serves as an animal model of human multiple sclerosis. In both diseases, circulating leukocytes such as T cells and monocytes penetrate the blood/brain barrier and damage myelin, resulting in paralysis.
# EAE was induced in female SJL/J mice (8 to 14 weeks old) by immunization on day zero with 50 μg of a peptide corresponding to positions 139-151 of PLP emulsified in a 1:1 mixture of PBS and complete Freund's adjuvant (CFA). […]
# Mice were observed daily, beginning at day 8 for clinical signs of EAE, and disease was scored on a scale of 0-5 as: 0=no disease; 1=floppy tail; 2=moderate hind limb weakness; 3=paraparesis; 4=paraplegis with moderate forelimb weakness; 5=qualdriplegis or premoribund state. […]
# Summed or averaged scores for clinical signs were plotted vs. time. The area under the resulting curves was calculated between day 8 and day 35 to calculate percentage inhibition of EAE by an inhibitor peptide. The percent inhibition was calculated as follows: […]
# [4] = Toxicity study at 600 mg/kg/day; format: in vivo
# Description: The results of this study are shown in the graph of FIG. 5 for the saline and recited inhibitor peptide treatments.
# [5] = Elices et al. 1993; by proteolytic degradation; cited from earlier work
# [6] = system: murine contact hypersensitivity; conditions: cited from earlier work
# VLA-4 [7] = target: T1, VLA-4; conditions: cited from earlier work
# [8] = normalized IC50 relative to standard peptide of SEQ ID NO:3 (=1), about one-tenth or less of the standard is assigned zero
# [9] = 100 mg/kg single nebulizer administration, early phase 2-4 hours, versus challenged controls
# [10] = 100 mg/kg single nebulizer administration, late phase 24 hours, versus challenged controls
compound,measurement,setting,value
"CC(C)C[C@H](NC(=O)Cc1ccccc1)C(=O)N[C@@H](CC(=O)O)C(=O)N[C@@H](Cc1ccccc1)C(=O)N1CCOCC1 [X L D F Z phenylacetyl morpholinamide, N-phenylacetyl-Leu-Asp-Phe-morpholinamide] (PhAc-Leu-Asp-Phe-Morpholide)",IC50,"VLA-4 [1]; Jurkat cells / solid phase-bound CS-1, read-out: absolute IC50 value",180 to 300 nM
same,RELATIVE POTENCY (relative peptide inhibition of VLA-4 binding CS-1),VLA-4 [1]; [8],844
same,"Cdyn, % Reduction, Early phase",[2]; [9],94.4%
same,"RL, % Reduction, Early phase",[2]; [9],80.1%
same,"Cdyn, % Reduction, Late phase",[2]; [10],86.6%
same,"RL, % Reduction, Late phase",[2]; [10],82.6%
same,Cdyn value over six hours after challenge,"[2]; FIG. 4A, 100 mg/kg nebulized",stayed at about the initial value
same,RL values over six hours after challenge,"[2]; FIG. 4B, 100 mg/kg nebulized",≤ 200% of initial value
same,loss of potency after 24 hours,[3],no loss of potency
CCCCCCCCCCCCCCCCCCNC(=O)CCCCCNC(=O)[C@@H]1CCCN1C(=O)[C@H](Cc1ccccc1)NC(=O)[C@H](CC(=O)O)NC(=O)[C@H](CC(C)C)NC(=O)Cc1ccccc1 [phenylacetyl-Leu-Asp-Phe-Pro-NH(CH2)5 C(O)NHC18 H37] (PhAc-LDFP[Ahx]-NHOctadecyl),RELATIVE POTENCY (relative peptide inhibition of VLA-4 binding CS-1),VLA-4 [1]; [8],1
same,water solubility,Water solubility,not water-soluble
"CC(C)C[C@H](NC(=O)Cc1ccccc1)C(=O)N[C@@H](CC(=O)O)C(=O)N[C@@H](Cc1ccccc1)C(=O)N1CCC[C@@H]1C(N)=O [X L D F p phenylacetyl amide, N-phenylacetyl-Leu-Asp-Phe-D-Pro-NH2] (PhAc-LDF[dP]-NH2)",percentage of IEL thickening based on total coronary vessel area (lesion severity),"New Zealand white rabbit; 59 vessels of two rabbits, saline 35, basal about 15",about 18%
same,vessels exhibiting IEL thickening,"New Zealand white rabbit; 141 vessels of two rabbits, saline about 80, basal about 20",about 30%
same,IC50,VLA-4 [1],~500 nM
same,binding inhibition better than the standard 10-mer peptide of SEQ ID NO:3,VLA-4 [1],about 312 times
same,RELATIVE POTENCY (relative peptide inhibition of VLA-4 binding CS-1),VLA-4 [1]; [8],313
same,reduction of inflammation (ear swelling diameter at challenge site),BALB/c mice,reduced this type of CS-1/VLA-4-mediated immunoinflammation
same,clinical signs of EAE,SJL/J mice,marked improvement in clinical signs
same,loss of potency after 24 hours,[3],no loss of potency
same,toxicity,[4],no toxicity
CC[C@H](C)[C@H](NC(=O)[C@H](CCC(=O)O)NC(=O)[C@@H]1CCCN1C(=O)CNC(=O)[C@H](Cc1c[nH]cn1)NC(=O)[C@H](CC(C)C)NC(=O)[C@H](CC(N)=O)NC(=O)[C@@H]1CCCN1C(=O)[C@H](Cc1c[nH]cn1)NC(=O)[C@@H]1CCCN1C(=O)[C@H](CC(C)C)NC(=O)[C@@H](NC(=O)[C@@H](NC(=O)[C@H](CC(C)C)NC(=O)[C@H](CCC(N)=O)NC(=O)[C@@H]1CCCN1C(=O)[C@H](CC(C)C)NC(=O)[C@H](CCC(=O)O)NC(=O)[C@@H](N)CC(=O)O)C(C)C)[C@@H](C)O)C(=O)N[C@@H](CC(C)C)C(=O)N[C@@H](CC(=O)O)C(=O)N[C@H](C(=O)N1CCC[C@H]1C(=O)N[C@@H](CO)C(=O)N[C@H](C(=O)O)[C@@H](C)O)C(C)C [CS-1 peptide] (H-DELPQLVTLPHPNLHGPEILDVPST-OH),clearance from blood circulation,[5],rapidly cleared
same,inhibition of contact hypersensitivity,[6]; Elices et al. 1993,unable to reproduce inhibition
same,inhibition of recruitment of T lymphocytes to skin inflammatory sites,[6]; Ferguson et al. 1991,partially inhibited
Leu-Asp-Val [LDV],affinity of VLA-4 lower than for the native CS-1 25-mer,VLA-4 [7],at least two
CC(C)C[C@H](NS(=O)(=O)c1cccc2cccnc12)C(=O)N[C@@H](CC(=O)O)C(=O)N[C@@H](Cc1ccccc1)C(=O)N1CCC[C@@H]1C(N)=O [X L D F p 8-quinolinesulfonyl amide] (X15-LDF[dP]-NH2),RELATIVE POTENCY (relative peptide inhibition of VLA-4 binding CS-1),VLA-4 [1],3
CC(C)C[C@@H](C(=O)N[C@@H](CC(=O)O)C(=O)N[C@@H](Cc1ccccc1)C(=O)N1CCCCC1)N1C(=O)NC(c2ccccc2)C1=O (stereo partly drawn),RELATIVE POTENCY (relative peptide inhibition of VLA-4 binding CS-1),VLA-4 [1],34
"Cc1cccc(C(=O)N[C@@H](CC(C)C)C(=O)N[C@@H](CC(=O)O)C(=O)N[C@H](C(=O)N2CCC[C@@H]2C(N)=O)C(C)C)c1C [X L D V p 2,3-dimethylbenzoyl amide]",RELATIVE POTENCY (relative peptide inhibition of VLA-4 binding CS-1),VLA-4 [1],9
CCCCCCCCCCNC(=O)[C@@H]1CCCN1C(=O)[C@H](Cc1ccccc1)NC(=O)[C@H](CC(=O)O)NC(=O)[C@H](CC(C)C)NC(=O)Cc1ccccc1 [X L D F P Z phenylacetyl decylamide] (PhAc-LDFP-NHDecyl),RELATIVE POTENCY (relative peptide inhibition of VLA-4 binding CS-1),VLA-4 [1]; [8],2
CC(=O)N[C@@H](CC(C)C)C(=O)N[C@@H](CC(=O)O)C(=O)N[C@@H](Cc1ccccc1)C(N)=O [L D F acetyl amide] (Ac-Leu-Asp-Phe-NH2),RELATIVE POTENCY (relative peptide inhibition of VLA-4 binding CS-1),VLA-4 [1],< 1
NC(=O)[C@H]1CCCN1C(=O)[C@H](Cc1ccccc1)NC(=O)[C@H](CC(=O)O)NC(=O)[C@H](CC1CCCCC1)NC(=O)c1ccccc1 (Bz-[Cha]DF[dP]-NH2),RELATIVE POTENCY (relative peptide inhibition of VLA-4 binding CS-1),VLA-4 [1]; [8],17
